Patent US12378224B2 (Dong-A Socio Holdings Co., Ltd., priority 2016, dated 2025)
pIC50: −log10 of the molar value.

Each compound was assayed against human MER (528-end) (Homo sapiens (Human), UniProt Q12866) (assay: HTRF Kinase Activity Biochemical Assay (KinEASE-TK)). Conditions: 10 uM ATP.
Chain of human MER (528-end) (Q12866 528-999 limits assumed): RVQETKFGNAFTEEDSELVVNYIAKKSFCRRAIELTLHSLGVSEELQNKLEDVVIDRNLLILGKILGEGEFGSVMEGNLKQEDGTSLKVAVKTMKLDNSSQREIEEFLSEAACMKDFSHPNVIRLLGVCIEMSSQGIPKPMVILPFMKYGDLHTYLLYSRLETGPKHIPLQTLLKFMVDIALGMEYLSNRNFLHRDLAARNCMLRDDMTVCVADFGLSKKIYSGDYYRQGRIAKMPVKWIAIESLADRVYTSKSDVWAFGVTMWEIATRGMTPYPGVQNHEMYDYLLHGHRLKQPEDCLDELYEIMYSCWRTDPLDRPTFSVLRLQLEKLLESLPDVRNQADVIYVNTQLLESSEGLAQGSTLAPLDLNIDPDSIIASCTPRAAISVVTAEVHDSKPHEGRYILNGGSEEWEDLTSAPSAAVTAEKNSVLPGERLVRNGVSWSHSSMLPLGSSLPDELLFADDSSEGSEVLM
Outline: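 Recombinant human MER (528-end) phosphorylated biotin-TK peptide substrate, 1 h at room temperature. Reaction stopped with detection buffer containing 0.375 nM Eu3+-cryptate anti-TK antibody and 0.062 uM streptavidin-XL665, 1 h further. Activity taken as HTRF ratio 665/620 nm ×10,000, 340 nm excitation.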
A pIC50 of less than 6.00 was found for `Cn1cc(-c2cnc(N)c(C(=O)N[C@@H]3CCN(C(=O)c4cccc(-c5cc6ccccc6s5)c4)C3)c2)cn1` [Example 474, (R)-2-amino-N-(1-(3-(benzo[b]thiophen-2-yl)benzoyl)pyrrolidin-3-yl)-5-(1-methyl-1H-pyrazol-4-yl)nicotinamide] in this work.
A pIC50 of less than 6.00 was found for `CN1CCN(c2cccc(-c3cccc(C(=O)N4CC[C@@H](NC(=O)c5cc(-c6cnn(C)c6)cnc5N)C4)c3)c2)CC1` [Example 476, (R)-2-amino-5-(1-methyl-1H-pyrazol-4-yl)-N-(1-(3′-(4-methylpiperazin-1-yl)-[1,1′-biphenyl]-3-carbonyl)pyrrolidin-3-yl)nicotinamide] in this work.
A pIC50 of less than 6.00 was found for `Cn1cc(-c2cnc(N)c(C(=O)N[C@@H]3CCN(C(=O)c4cccc(-c5ccccc5Cl)c4)C3)c2)cn1` [Example 478, (R)-2-amino-N-(1-(2′-chloro-[1,1′-biphenyl]-3-carbonyl)pyrrolidin-3-yl)-5-(1-methyl-1H-pyrazol-4-yl)nicotinamide] in this work.
A pIC50 of less than 6.00 was found for `Cn1cc(-c2cnc(N)c(C(=O)N[C@@H]3CCN(C(=O)c4cccc(-c5cccc(Cl)c5)c4)C3)c2)cn1` [Example 479, (R)-2-amino-N-(1-(3′-chloro-[1,1′-biphenyl]-3-carbonyl)pyrrolidin-3-yl)-5-(1-methyl-1H-pyrazol-4-yl)nicotinamide] in this work.
A pIC50 of less than 6.00 was found for `Cn1cc(-c2cnc(N)c(C(=O)N[C@@H]3CCN(C(=O)c4cccc(-c5ccnc(N6CCNCC6)c5)c4)C3)c2)cn1` [Example 480, (R)-2-amino-5-(1-methyl-1H-pyrazol-4-yl)-N-(1-(3-(2-(piperazin-1-yl)pyridin-4-yl)benzoyl)pyrrolidin-3-yl)nicotinamide] in this work.
A pIC50 of less than 6.00 was found for `Cn1cc(-c2cnc(N)c(C(=O)N[C@@H]3CCN(C(=O)c4cccc(-c5cccc(NS(C)(=O)=O)c5)c4)C3)c2)cn1` [Example 481, (R)-2-amino-5-(1-methyl-1H-pyrazol-4-yl)-N-(1-(3′-(methylsulfonamido)-[1,1′-biphenyl]-3-carbonyl)pyrrolidin-3-yl)nicotinamide] in this work.
A pIC50 of less than 6.00 was found for `Cc1ccc(C(=O)N2CC[C@@H](NC(=O)c3cc(-c4cnn(C)c4)cnc3N)C2)cc1-c1ccccc1` [Example 482, (R)-2-amino-5-(1-methyl-1H-pyrazol-4-yl)-N-(1-(6-methyl-[1,1′-biphenyl]-3-carbonyl)pyrrolidin-3-yl)nicotinamide] in this work.
A pIC50 of less than 6.00 was found for `Cc1ccc(C(=O)N2CC[C@@H](NC(=O)c3cc(-c4cnn(C)c4)cnc3N)C2)cc1-c1ccccc1Cl` [Example 483, (R)-2-amino-N-(1-(2′-chloro-6-methyl-[1,1′-biphenyl]-3-carbonyl)pyrrolidin-3-yl)-5-(1-methyl-1H-pyrazol-4-yl)nicotinamide] in this work.
A pIC50 of less than 6.00 was found for `Cc1ccc(C(=O)N2CC[C@@H](NC(=O)c3cc(-c4cnn(C)c4)cnc3N)C2)cc1-c1cccc(Cl)c1` [Example 484, (R)-2-amino-N-(1-(3′-chloro-6-methyl-[1,1′-biphenyl]-3-carbonyl)pyrrolidin-3-yl)-5-(1-methyl-1H-pyrazol-4-yl)nicotinamide] in this work.
A pIC50 of 6.00 to 7.00 was found for `Cc1cc(C(=O)N2CC[C@@H](NC(=O)c3cc(-c4cnn(C)c4)cnc3N)C2)c(N)c(-c2ccccc2)c1` [Example 485, (R)-2-amino-N-(1-(2-amino-5-methyl-[1,1′-biphenyl]-3-carbonyl)pyrrolidin-3-yl)-5-(1-methyl-1H-pyrazol-4-yl)nicotinamide] in this work.
A pIC50 of 6.00 to 7.00 was found for `Cc1nn(C)cc1-c1ccc(C(=O)N2CC[C@@H](NC(=O)c3cc(-c4cnn(C)c4)cnc3N)C2)cc1` [Example 488, (R)-2-amino-N-(1-(4-(1,3-dimethyl-1H-pyrazol-4-yl)benzoyl)pyrrolidin-3-yl)-5-(1-methyl-1H-pyrazol-4-yl)nicotinamide] in this work.
A pIC50 of less than 6.00 was found for `Cn1cc(-c2cnc(N)c(C(=O)N[C@@H]3CCN(C(=O)c4ccc(-c5cc6ccccc6s5)cc4)C3)c2)cn1` [Example 490, (R)-2-amino-N-(1-(4-(benzo[b]thiophen-2-yl)benzoyl)pyrrolidin-3-yl)-5-(1-methyl-1H-pyrazol-4-yl)nicotinamide] in this work.
A pIC50 of 6.00 to 7.00 was found for `Cn1cc(-c2cnc(N)c(C(=O)N[C@@H]3CCN(C(=O)c4ccc(-c5ccnc(N6CCNCC6)c5)cc4)C3)c2)cn1` [Example 491, (R)-2-amino-5-(1-methyl-1H-pyrazol-4-yl)-N-(1-(4-(2-(piperazin-1-yl)pyridin-4-yl)benzoyl)pyrrolidin-3-yl)nicotinamide] in this work.
A pIC50 of less than 6.00 was found for `Cn1cc(-c2cnc(N)c(C(=O)N[C@@H]3CCN(C(=O)c4ccc(-c5ccc(N6CCOCC6)cc5)cc4)C3)c2)cn1` [Example 492, (R)-2-amino-5-(1-methyl-1H-pyrazol-4-yl)-N-(1-(4′-morpholino-[1,1′-biphenyl]-4-carbonyl)pyrrolidin-3-yl)nicotinamide] in this work.
A pIC50 of less than 6.00 was found for `Cn1cc(-c2cnc(N)c(C(=O)N[C@@H]3CCN(C(=O)c4ccc(-c5ccc(C(=O)N6CCOCC6)cc5)cc4)C3)c2)cn1` [Example 493, (R)-2-amino-5-(1-methyl-1H-pyrazol-4-yl)-N-(1-(4′-(morpholine-4-carbonyl)-[1,1′-biphenyl]-4-carbonyl)pyrrolidin-3-yl)nicotinamide] in this work.
A pIC50 of less than 6.00 was found for `CC1=C(C(=O)N2CC[C@@H](NC(=O)c3cc(-c4cnn(C)c4)cnc3N)C2)Cc2ccccc21` [Example 497, (R)-2-amino-N-(1-(3-methyl-1H-indene-2-carbonyl)pyrrolidin-3-yl)-5-(1-methyl-1H-pyrazol-4-yl)nicotinamide] in this work.
A pIC50 of less than 6.00 was found for `Cn1cc(-c2cnc(N)c(C(=O)N[C@@H]3CCN(C(=O)c4cccc5[nH]ccc45)C3)c2)cn1` [Example 504, (R)—N-(1-(1H-indole-4-carbonyl)pyrrolidin-3-yl)-2-amino-5-(1-methyl-1H-pyrazol-4-yl)nicotinamide] in this work.
A pIC50 of 6.00 to 7.00 was found for `Cn1cc(-c2ccc(C(=O)N3CC[C@@H](NC(=O)c4cc(-c5cnn(C)c5)cnc4N)C3)cc2)cn1` [Example 506, (R)-2-amino-5-(1-methyl-1H-pyrazol-4-yl)-N-(1-(4-(1-methyl-1H-pyrazol-4-yl)benzoyl)pyrrolidin-3-yl)nicotinamide] in this work.
A pIC50 of 6.00 to 7.00 was found for `Cc1nn(C)c(C)c1-c1ccc(C(=O)N2CC[C@@H](NC(=O)c3cc(-c4cnn(C)c4)cnc3N)C2)cc1` [Example 507, (R)-2-amino-5-(1-methyl-1H-pyrazol-4-yl)-N-(1-(4-(1,3,5-trimethyl-1H-pyrazol-4-yl)benzoyl)pyrrolidin-3-yl)nicotinamide] in this work.
A pIC50 of less than 6.00 was found for `Cn1cc(-c2cnc(N)c(C(=O)N[C@@H]3CCN(C(=O)c4ccc(-c5cnn(C6CCCC6)c5)cc4)C3)c2)cn1` [Example 508, (R)-2-amino-N-(1-(4-(1-cyclopentyl-1H-pyrazol-4-yl)benzoyl)pyrrolidin-3-yl)-5-(1-methyl-1H-pyrazol-4-yl)nicotinamide] in this work.
A pIC50 of less than 6.00 was found for `Cn1cc(-c2cnc(N)c(C(=O)N[C@@H]3CCN(C(=O)c4ccc(-c5cnn(C6CCOCC6)c5)cc4)C3)c2)cn1` [Example 509, (R)-2-amino-5-(1-methyl-1H-pyrazol-4-yl)-N-(1-(4-(1-(tetrahydro-2H-pyran-4-yl)-1H-pyrazol-4-yl)benzoyl)pyrrolidin-3-yl)nicotinamide] in this work.
A pIC50 of less than 6.00 was found for `Cn1cc(-c2cnc(N)c(C(=O)N[C@@H]3CCN(C(=O)c4ccc(-c5cnn(C6CCNCC6)c5)cc4)C3)c2)cn1` [Example 510, (R)-2-amino-5-(1-methyl-1H-pyrazol-4-yl)-N-(1-(4-(1-(piperidin-4-yl)-1H-pyrazol-4-yl)benzoyl)pyrrolidin-3-yl)nicotinamide] in this work.
A pIC50 of less than 6.00 was found for `Cn1cc(-c2cnc(N)c(C(=O)N[C@@H]3CCN(C(=O)c4cc5cc(-c6ccccc6)ccc5o4)C3)c2)cn1` [Example 512, (R)-2-amino-5-(1-methyl-1H-pyrazol-4-yl)-N-(1-(5-phenylbenzofuran-2-carbonyl)pyrrolidin-3-yl)nicotinamide] in this work.
A pIC50 of less than 6.00 was found for `Cn1cc(-c2cnc(N)c(C(=O)N[C@@H]3CCN(C(=O)c4cccc(O)c4)C3)c2)cn1` [Example 515, (R)-2-amino-N-(1-(3-hydroxybenzoyl)pyrrolidin-3-yl)-5-(1-methyl-1H-pyrazol-4-yl)nicotinamide] in this work.
A pIC50 of 7.00 to 8.00 was found for `Cc1c(-c2ccc(C(=O)N3CC[C@@H](NC(=O)c4cc(-c5cnn(C)c5)cnc4N)C3)cc2)cnn1C` [Example 517, (R)-2-amino-N-(1-(4-(1,5-dimethyl-1H-pyrazol-4-yl)benzoyl)pyrrolidin-3-yl)-5-(1-methyl-1H-pyrazol-4-yl)nicotinamide] in this work.
A pIC50 of less than 6.00 was found for `Cc1nn(-c2ccccc2)c(C)c1-c1ccc(C(=O)N2CC[C@@H](NC(=O)c3cc(-c4cnn(C)c4)cnc3N)C2)cc1` [Example 519, (R)-2-amino-N-(1-(4-(3,5-dimethyl-1-phenyl-1H-pyrazol-4-yl)benzoyl)pyrrolidin-3-yl)-5-(1-methyl-1H-pyrazol-4-yl)nicotinamide] in this work.
A pIC50 of 6.00 to 7.00 was found for `Cc1sc(-c2ccc(C(=O)N3CC[C@@H](NC(=O)c4cc(-c5cnn(C)c5)cnc4N)C3)cc2)c(C)c1Br` [Example 522, (R)-2-amino-N-(1-(4-(4-bromo-3,5-dimethylthiophen-2-yl)benzoyl)pyrrolidin-3-yl)-5-(1-methyl-1H-pyrazol-4-yl)nicotinamide] in this work.
A pIC50 of 6.00 to 7.00 was found for `Cn1cc(-c2cnc(N)c(C(=O)N[C@@H]3CCN(C(=O)c4ccc(-c5ccc(Oc6ccccc6)cc5)cc4)C3)c2)cn1` [Example 527, (R)-2-amino-5-(1-methyl-1H-pyrazol-4-yl)-N-(1-(4′-phenoxy-[1,1′-biphenyl]-4-carbonyl)pyrrolidin-3-yl)nicotinamide] in this work.
A pIC50 of less than 6.00 was found for `COc1ccc(Oc2ccc(-c3ccc(C(=O)N4CC[C@@H](NC(=O)c5cc(-c6cnn(C)c6)cnc5N)C4)cc3)cc2)cc1` [Example 528, (R)-2-amino-N-(1-(4′-(4-methoxyphenoxy)-[1,1′-biphenyl]-4-carbonyl)pyrrolidin-3-yl)-5-(1-methyl-1H-pyrazol-4-yl)nicotinamide] in this work.
A pIC50 of 6.00 to 7.00 was found for `Cc1ccc(-c2ccc(C(=O)N3CC[C@@H](NC(=O)c4cc(-c5cnn(C)c5)cnc4N)C3)cc2O)s1` [Example 535, (R)-2-amino-N-(1-(3-hydroxy-4-(5-methylthiophen-2-yl)benzoyl)pyrrolidin-3-yl)-5-(1-methyl-1H-pyrazol-4-yl)nicotinamide] in this work.
